Legend:
primary mouse astrocytes [1] = assay: Extracellular medium acidification (SNARF5), Example 2; type: cell-based; conditions: Astrocyte, 3 nM to 30 μM, 1.5 h and 3 h
Procedure: (§1) Primary cultures of cerebrocortical astrocytes were obtained from 1 to 2-day-old OF1 mouse pups (Charles River). Briefly, cortices were isolated and minced in small pieces under a dissecting microscope. The cells were incubated for 30 min at 37° C. in a solution containing 20 U/ml papain, 1 mM L-cysteine and 10 kU/ml DNase I. After dissociation, papain activity was stopped by the addition of fetal calf serum (FCS). Single-cell suspension was then obtained by mechanical dissociation, which consisted in cells trituration in a DMEM D7777 medium supplemented with 44 mm NaHCO3, 10 ml/L antibiotic/antimycotic solution and 10% FCS. […]
Secretion of lactate was measured indirectly through the acidification of extracellular medium using extracellular pH sensor SNARE-5F-(AND-6)-CAR (SNARF5). […] After 90 min stimulation, fluorescence was read at exc. […] The ratio of fluorescence between 630 nm and 580 emission values, which is proportional to extracellular pH, was calculated. […]
The extracellular medium acidification in primary mouse astrocytes treated with GP-A1 was quantified (FIG. 13). Extracellular medium acidification was measured over a period of 1.5 h and 3 h.

primary mouse astrocytes [2] = assay: Extracellular lactate quantification, Example 2; type: cell-based; conditions: Astrocyte, 3 nM to 30 μM, 1.5 h, read-out: EC50 release of lactate
Procedure: as §1
Secretion of L-lactate was measured in the extracellular medium of 96-well plated astrocytes after 90 min stimulation (at 37° C., in 5% CO2/95% air conditions) with Vehicle (DMSO), the compounds of the invention (100 nM to 100 μM) or positive control. […] To quantify lactate concentrations in the extracellular medium, 200 μl of a 0.2M Glycine-semicarbazide buffer (pH 10) containing 3 mM NAD and 14 U/ml LDH was added to each well of a 96-well plate containing 30 μl aliquots of extracellular medium. […] Fluorescence intensity (340 nm excitation/450 nm emission), which represents the amount of NADH produced, was measured, and lactate concentration values were determined relative to a standard curve of L-lactate concentrations. […]

[3] = In vivo pharmacokinetics (PFC microdialysis and plasma); parameters: species or system mouse; conditions: after gavage with 100 mg/kg; sustained over several hours
Procedure: Mice were anesthetized using isoflurane (2% and 800 mL/min 02). Before surgery, Finadyne (1 mg/kg, s.c.) was administered for analgesia during surgery and the post-surgical recovery period. A mixture of bupivacaine and epinephrine was used for local anesthesia of the incision site of the periost of the skull.
The animals were placed in a stereotaxic frame (Kopf instruments, USA). MetaQuant microdialysis probes with a 3 mm exposed polyacrylonitrile membrane (MQ-PAN 3/3, Brainlink, the Netherlands) were implanted into the prefrontal cortex (coordinates for the tip of the probe: AP=+2.0 mm (to bregma), lateral=−0.7 mm (to midline), ventral=−3.3 mm (to dura), with the incisor bar set at 0.0 mm and an angle of 8°). All coordinates were based on “The mouse brain in stereotaxic coordinates” by Paxinos and Franklin (2004). The probes were attached to the skull with a stainless steel screw and dental cement (Fuji Plus Capsules, Henry Schein, the Netherlands).
In the same surgical procedure, a catheter was placed into the jugular vein to accommodate blood sampling. An indwelling cannula was inserted into the right jugular vein, and exteriorized through an incision on top of the skull. […]
PK was measured for GP-04, GP-05, GP-07, GP-R1 and GP-P1 in the PFC (prefrontal cortex) and plasma of wild type C56Bl/6 mice by CRO Brainsonline.

Row | Structure (SMILES) | EC50 (primary mouse astrocytes [1]) [nM] | EC50 (primary mouse astrocytes [2]) [nM] | Levels in the PFC [3]
1 | Cc1ccccc1NC(=O)C1CCCN(c2ncnc3oc(C)c(C)c23)C1 (stereo not shown) [F228-0422] | 370 to 480 | 590 | 
2 | CC(=O)N1CCc2sc(S(=O)(=O)N3CCN(c4ccccc4C)CC3)cc2C1 [P025-0159] |  |  | need chemical improvement to reach their target at therapeutic dose in the brain
3 | COc1cc(C)c(Cl)cc1S(=O)(=O)NCc1ccncc1 [T5580243] |  |  | at therapeutic range (100 nM to 1 uM)

— patent US12274703B2, “Compositions and methods of treatment for neurological disorders comprising a dementia” (Gliapharm SA, priority 2017, dated 2025)
